# In US5599812A, “Tricyclic pyrrolopyrazine 5-HT3 -active compounds” (Adir Et Compagnie, priority 1993, dated 1997):
# Tests used:
# [1] = Solubility in DMSO (NMR remark); type: physicochemical; details: d6-DMSO, tetrahydrochloride
# 5-HT3 receptors [2] = molecular target: T1, 5-HT3 receptors (Mus musculus, UniProt P23979); assay: Accumulation of 14C-guanidinium in NG 108-15 cells; details: for multiplication of the intracellular accumulation of 14C-guanidinium: fold, agonist at 10 μM-0.1 mM
# T1 sequence (P23979 24-489): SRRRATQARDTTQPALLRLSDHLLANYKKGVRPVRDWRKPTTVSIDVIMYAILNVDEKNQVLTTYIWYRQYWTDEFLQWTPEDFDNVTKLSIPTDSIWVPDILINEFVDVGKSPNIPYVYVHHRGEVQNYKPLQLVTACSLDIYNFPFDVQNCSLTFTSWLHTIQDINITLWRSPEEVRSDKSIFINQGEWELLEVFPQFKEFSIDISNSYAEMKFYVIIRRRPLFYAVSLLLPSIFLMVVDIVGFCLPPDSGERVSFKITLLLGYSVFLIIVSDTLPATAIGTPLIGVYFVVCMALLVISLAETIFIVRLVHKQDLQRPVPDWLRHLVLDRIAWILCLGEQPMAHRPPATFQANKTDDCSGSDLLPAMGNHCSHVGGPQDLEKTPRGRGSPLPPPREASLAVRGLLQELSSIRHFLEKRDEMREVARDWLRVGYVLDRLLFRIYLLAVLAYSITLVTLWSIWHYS
# Protocol: The accumulation of ^14 -C-guanidinium in NG 108-15 cells is measured and makes it possible to study the interaction of the tested compounds with 5-HT3 receptors, knowing that this accumulation is stimulated by agonists of 5-HT3 receptors.
# The NG 108-15 hybrid clone (neuroblastoma-glioma) is cultured under standard conditions (Dulbecco's medium to which 40 mM of sodium bicarbonate, 1.8 mM of L-glutamine, 0.1 mM of hypoxanthine, 1 μM of aminopterin, 16 μM of thymine and 10% of fetal calf serum are added) at 37° C. in an atmosphere enriched in CO2 (7%). At confluence (.congruent.3.5×10^5 cells in dishes with diameters of 35 mm), the culture medium is sucked off and the cell lawn is rapidly washed with 3 cm^3 of a HEPES (20 mM) buffer containing 145 mM of NaCl, 5.4 mM of KCl, 1.8 mM of CaCl2, 1.0 mM of MgCl2 and 20 mM of glucose, pH 7.4. […] The incubation lasts 10 minutes at 37° C. The medium is then sucked off and the cells are rapidly washed twice with 3 cm^3 of the washing buffer in which the NaCl has been fully replaced by an equimolar concentration of choline chloride. Finally, the cell lawn is taken up in 0.5 cm^3 of 0.4N sodium hydroxide solution and the accumulated radioactivity is counted by spectrometry in liquid medium (Aquasol).
# 5-HT3 receptors [3] = molecular target: T2, 5-HT3 receptors (Rattus norvegicus, UniProt P35563); assay: Bradycardic Bezold-Jarisch reflex in anesthetized rats; type: in vivo, Sprague-Dawley; details: for fall in the cardiac rhythm / duration of the fall in the cardiac rhythm: i.v. injection of 30 μg; for duration of the fall in the cardiac rhythm: approximately; for dose completely preventing the agonist-induced bradycardia: prior i.v. administration, against 30 μg i.v. agonist
# T2 construct: bradycardia induced by stimulation of 5-HT3 receptors on vagal afferent neurons; from tissue; host or cells: whole anesthetized rat; receptors on vagal afferent neurons
# T2 sequence (P35563 24-483): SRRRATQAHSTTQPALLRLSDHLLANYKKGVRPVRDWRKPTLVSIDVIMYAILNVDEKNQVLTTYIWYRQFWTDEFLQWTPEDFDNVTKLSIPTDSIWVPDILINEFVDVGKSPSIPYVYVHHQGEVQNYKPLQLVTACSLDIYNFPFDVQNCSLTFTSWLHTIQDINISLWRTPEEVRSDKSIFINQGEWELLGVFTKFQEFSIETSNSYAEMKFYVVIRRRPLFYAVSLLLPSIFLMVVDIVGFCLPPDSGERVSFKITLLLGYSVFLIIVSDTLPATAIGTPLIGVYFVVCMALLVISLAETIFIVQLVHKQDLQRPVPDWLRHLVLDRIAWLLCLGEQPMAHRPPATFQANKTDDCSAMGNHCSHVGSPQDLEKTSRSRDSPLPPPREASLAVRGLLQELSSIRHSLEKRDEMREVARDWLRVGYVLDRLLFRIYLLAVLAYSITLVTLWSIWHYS
# Protocol: Bradycardia (Bezold-Jarisch reflex) is induced by the intravenous injection of 5-HT3 serotonin in rats anesthetized with urethane.
# This response consists of a violent but transitory bradycardia induced by stimulation of 5-HT3 receptors on vagal afferent neurons.
# The animal (adult male rat, Sprague-Dawley strain, 250-300 g) is first of all anesthetized with urethane (1.4 g/kg i.p.) and then a tracheotomy is performed in order to implant a tracheal cannula. A catheter (0.3 mm)is introduced into the abdominal aorta via the femoral artery for the continuous recording of the arterial pressure and the cardiac rhythm.
# Bradycardia is expressed as percentage of lowering (maximum) of the base rhythm, before any treatment (means±M.S.D.).
# [4] = doses (I.V.) 30, 60 and 120 μg·Kg^-1 (one value given)
compound,measurement,setting,value
"c1ccc(CN2CCN(c3ccc4nc(N5CCN(Cc6ccccc6)CC5)c5cccn5c4n3)CC2)cc1 [Example 93, 2,6-bis(4-benzylpiperazino)pyrido[3,2-e]pyrrolo[1,2-a]pyrazine]",solubility in DMSO,[1],insoluble
NCCc1c[nH]c2ccc(O)cc12 [serotonin],multiplication of the intracellular accumulation of 14C-guanidinium,5-HT3 receptors [2],5
same,"Agonist Effect, Bradycardia %","5-HT3 receptors [3]; dose (I.V.) 30 μg·Kg^-1, n = 21, maximum lowering of base rhythm, means ± M.S.D.",68.0 ± 2.3%
same,fall in the cardiac rhythm,5-HT3 receptors [3],-80%
same,duration of the fall in the cardiac rhythm,5-HT3 receptors [3],4 to 5 s
Cc1nccn1CC1CCc2c(c3ccccc3n2C)C1=O (stereo not shown) [ondansetron],dose completely preventing the agonist-induced bradycardia,5-HT3 receptors [3],1 µg/kg
"c1ccc(CN2CCN(c3nc4cccnc4n4cccc34)CC2)cc1 [Example 11, 6-(4-benzylpiperazino)pyrido[3,2-e]pyrrolo [1,2-a]pyrazine]",EC50,5-HT3 receptors [2],30 nM
same,Antagonist effect at (dose),"5-HT3 receptors [3]; I.V., rat, Bezold-Jarisch reflex",120 µg/kg
same,"Agonist Effect, Bradycardia %","5-HT3 receptors [3]; dose (I.V.) 120 μg·Kg^-1, n = 7, maximum lowering of base rhythm, means ± M.S.D.",59.4 ± 7.2%
"Clc1ccc2c(c1)nc(N1CCN(Cc3ccccc3)CC1)c1cccn12 [Example 3, 4-(4-benzylpiperazino)-7-chloropyrrolo[1,2-a]quinoxaline]",EC50,5-HT3 receptors [2],50 nM
same,"Agonist Effect, Bradycardia %",5-HT3 receptors [3]; [4],0%
"c1ccc(CN2CCN(c3nc4ccccc4n4cccc34)CC2)cc1 [Example 1, 4-(4-benzylpiperazino)pyrrolo[1,2-a]quinoxaline]",EC50,5-HT3 receptors [2],~100 nM
COc1cc(N)c(Cl)cc1C(=O)NC1CN2CCC1CC2 (stereo not shown) [zacopride],dose completely preventing the agonist-induced bradycardia,5-HT3 receptors [3],1 µg/kg
"Fc1ccc(CN2CCN(c3nc4cc(Cl)ccc4n4cccc34)CC2)cc1 [Example 4, 7-CHLORO-4-[4-(4-FLUOROBENZYL)PIPERAZINO]PYRROLO[1,2-a]QUINOXALINE]",EC50,5-HT3 receptors [2],100 nM
same,Antagonist effect at (concentration),"5-HT3 receptors [2]; antagonist effect, 14C-guanidinium accumulation, NG 108-15 cells",3 nM
same,"Agonist Effect, Bradycardia %",5-HT3 receptors [3]; [4],0%
Cc1[nH]c2ccc(O)cc2c1CCN [2-methyl-5-hydroxytryptamine],multiplication of the intracellular accumulation of 14C-guanidinium,5-HT3 receptors [2],5
same,fall in the cardiac rhythm,5-HT3 receptors [3],-80%
same,duration of the fall in the cardiac rhythm,5-HT3 receptors [3],4 to 5 s
